The values that follow come from patent publication US20240309059A1, “PEPTIDE HAVING ANTI-VIRAL ACTIVITY, ANTI-VIRAL AGENT COMPRISING SAID PEPTIDE, AND METHOD FOR PRODUCING SAID ANTI-VIRAL AGENT” (National University Corporation Tokyo Medical and Dental …, priority 2021, published 2024).

Ends that are not written are not given here.

Data set [1] is described as follows: solubility to 50 mM HEPES buffer solution (pH 8.0). Format: physicochemical. The settings on record: room temperature. On the procedure:
In this Example, Ce113, Ce149, Ce172, Ce173 and Ce174 developed in the aforementioned Examples were each dissolved in 50 mM HEPES buffer solution (pH 8.0) and the degrees of solubility of them to 50 mM HEPES buffer solution (pH 8.0) were computationally obtained.
Ce113, Ce149, Ce172, Ce173 and Ce174 having the aforementioned amino acid sequences were chemically synthesized and each dissolved in a 50 mM HEPES buffer solution (pH 8.0). To describe more specifically, the peptides chemically synthesized were each added to the 50 mM HEPES buffer solution (pH 8.0) of 250 μL and stirred by pipetting using a micropipette a sufficient number of times and allowed to stand still at room temperature. When undissolved residue was not present, the peptide was further added and the same operation was repeated. When undissolved residue was present, the sample was allowed to stand still for 10 minutes, stirred by pipetting using a micropipette a sufficient number of times and allowed to stand still at room temperature. The operation of this step was repeated further twice and then concentration was measured by NanoPhotometer NP80 manufactured by IMPLEN to evaluate the degrees of solubility to the 50 mM HEPES buffer solution (pH 8.0).

The nature of data set [2]: solubility to ultra-pure water. Format: physicochemical. The settings on record: room temperature. The procedure: In this Example, Ce4, Ce9, Ce41 and Ce59 developed in the aforementioned Examples were each dissolved in ultra-pure water and the degrees of solubility of them to ultra-pure water were computationally obtained.
Ce4, Ce9, Ce41 and Ce59 having the aforementioned amino acid sequences were chemically synthesized and each dissolved in ultra-pure water. To describe more specifically, the peptides chemically synthesized were each added to ultra-pure water of 250 μL and stirred by pipetting using a micropipette a sufficient number of times and allowed to stand still at room temperature. When undissolved residue was not present, the peptide was further added and the same operation was repeated. When undissolved residue was present, the sample was allowed to stand still for 10 minutes, again stirred by pipetting using a micropipette a sufficient number of times and allowed to stand still at room temperature. After the operation in this step was repeated further twice, concentration was measured by NanoPhotometer NP80 manufactured by IMPLEN to evaluate the degrees of solubility to ultra-pure water.

Data set [3] addresses receptor binding domain (RBD) in wild-type SARS-COV-2 (Severe acute respiratory syndrome coronavirus 2, UniProt P0DTC2). The settings on record: result in words (binding rate and degree of dissociation).

As a reminder, the IC50 is the concentration that gives 50% inhibition. Low values mean greater potency in that assay, high ones weaker potency in that assay. What is called thermodynamic solubility is solubility found after equilibrating the solid with the medium. A word on the solubility: it is the concentration that dissolves in the medium under given conditions. Read a high solubility as a readily soluble substance.

In turn, `CC[C@H](C)[C@H](NC(=O)[C@H](CC(C)C)NC(=O)[C@H](CC(=O)O)NC(=O)[C@H](CO)NC(=O)[C@@H](NC(=O)[C@H](CCCNC(=N)N)NC(=O)[C@H](CCSC)NC(=O)[C@H](CO)NC(=O)[C@H](C)NC(=O)[C@H](CCC(=O)O)NC(=O)[C@H](C)NC(=O)[C@H](Cc1c[nH]cn1)NC(=O)CNC(=O)[C@H](CC(C)C)NC(=O)[C@H](CCC(=O)O)NC(=O)[C@H](CC(=O)O)NC(=O)[C@H](CC(C)C)NC(=O)[C@H](CC(C)C)NC(=O)[C@H](CCCNC(=N)N)NC(=O)[C@H](CCSC)NC(=O)[C@@H](NC(=O)[C@H](CCC(=O)O)NC(=O)[C@H](Cc1ccc(O)cc1)NC(=O)[C@@H](NC(=O)[C@H](CCCCN)NC(=O)[C@H](CCC(N)=O)NC(=O)[C@H](CC(C)C)NC(=O)[C@@H](NC(=O)[C@H](Cc1c[nH]c2ccccc12)NC(=O)[C@H](CCC(=O)O)NC(=O)[C@H](CCCCN)NC(=O)[C@@H](N)CC(=O)O)[C@@H](C)CC)[C@@H](C)CC)[C@@H](C)CC)C(C)C)C(=O)N[C@@H](Cc1ccc(O)cc1)C(=O)N[C@@H](CCC(=O)O)C(=O)N[C@@H](Cc1ccccc1)C(=O)N[C@@H](CCSC)C(=O)N[C@@H](CCCCN)C(=O)N[C@@H](CCCCN)C(=O)NCC(=O)O` [Ca1, reference compound] showed an IC50 with wild-type SARS-COV-2 of 107 nM.

`CC[C@H](C)[C@H](NC(=O)[C@H](CC(C)C)NC(=O)[C@H](CC(=O)O)NC(=O)[C@H](CO)NC(=O)[C@@H](NC(=O)[C@H](CCCNC(=N)N)NC(=O)[C@H](CCSC)NC(=O)[C@H](CO)NC(=O)[C@H](C)NC(=O)[C@H](CCC(=O)O)NC(=O)[C@H](C)NC(=O)[C@H](Cc1c[nH]cn1)NC(=O)CNC(=O)[C@H](CC(C)C)NC(=O)[C@H](CCC(=O)O)NC(=O)[C@H](CC(=O)O)NC(=O)[C@H](CC(C)C)NC(=O)[C@H](CC(C)C)NC(=O)[C@H](CCCNC(=N)N)NC(=O)[C@H](CCSC)NC(=O)[C@@H](NC(=O)[C@H](CCC(=O)O)NC(=O)[C@H](Cc1ccc(O)cc1)NC(=O)[C@@H](NC(=O)[C@H](CCCCN)NC(=O)[C@H](CCC(N)=O)NC(=O)[C@H](CC(C)C)NC(=O)[C@@H](NC(=O)[C@H](Cc1c[nH]c2ccccc12)NC(=O)[C@H](CCC(=O)O)NC(=O)[C@H](CCCCN)NC(=O)[C@@H](N)CC(=O)O)[C@@H](C)CC)[C@@H](C)CC)[C@@H](C)CC)C(C)C)C(=O)N[C@@H](Cc1ccc(O)cc1)C(=O)N[C@@H](CCC(=O)O)C(=O)N[C@@H](Cc1ccccc1)C(=O)N[C@@H](CCSC)C(=O)N[C@@H](CCCCN)C(=O)N[C@@H](CCCCN)C(=O)N[C@@H](CC(=O)O)C(=O)O` [Ce1] had an IC50 in the data set on wild-type SARS-COV-2 of 1.5 nM.

“DKEWILQKIYEIMQRLDEEGHGEASLMVSDLIYEFMKRD [Ce113]”: the solubility (thermodynamic) at 30 min in data set [1] was 2500 µM.

In data set [2], “DKEWILQKIYEIMRKLDEDGHAEASMRVSDLIYEFMKKD [Ce4]” yielded a solubility (thermodynamic) at 30 min of 4400 µM.

As for “DKEWILQKIYEIMRRLDEEGHAEASMRVSDLIYEFMKKD [Ce9]”, half-maximal inhibition in the data set with wild-type SARS-COV-2 (IC50) required 0.4 nM. Moreover, the thermodynamic solubility at 30 min in data set [2] worked out at 5200 µM.

For “DKEWILQKIYEIMRRLDEEGHGEASLRVSDLIYEFMKKD [Ce41]”, the “binding activity to the receptor binding domain (RBD)” value in data set [3] is reported as “high binding activity”. This molecule also came in with a solubility in data set [2] of 6100 µM.

Molecule “DKEWILQKIYEIMRRLDEEGHGEASLRVSDLIYEFMKRD [Ce59]” gave a solubility (thermodynamic) at 30 min in data set [2] of 6100 µM.

“DKEWILYKIYEIMQRLDEEGHGEASLMVSDLIYEFMKRD [Ce174]” showed a thermodynamic solubility at 30 min in data set [1] of 1600 µM.

In data set [1], “DKEWILYKIYEIMVRLDEEGHGEASLMVSDLIYEFMKRD [Ce149]” gave a thermodynamic solubility at 30 min of 1300 µM.

As to “DKLWILQKIYEIMQRLDEEGHGEASLMVSDLIYEFMKRD [Ce173]”, in data set [1], the thermodynamic solubility at 30 min is 1500 µM.

In data set [1], “DKLWILQKIYEIMVRLDEEGHGEASLMVSDLIYEFMKRD [Ce172]” had a solubility (thermodynamic) at 30 min of 1100 µM.
